# Experimental data reported in patent publication US20240116988A1, “ANTI-ROR1 MACROCYCLIC PEPTIDES AND COMPOSITIONS” (BRISTOL-MYERS SQUIBB COMPANY, priority 2022, published 2024).
# Positions of bridges follow the written chain, without caps; N, C: chain ends. Non-standard residues stand in square brackets, D forms with d. Residues, ends and D or L forms follow the SMILES beside them. ξ: configuration not given here. Bip = N[C@@H](Cc1ccc(-c2ccccc2)cc1)C(=O)O; NMeY = CN[C@@H](Cc1ccc(O)cc1)C(=O)O; NMeF = CN[C@@H](Cc1ccccc1)C(=O)O; Thr(3ξ) = CC(O)[C@H](N)C(=O)O; ξY = NC(Cc1ccc(O)cc1)C(=O)O; ξF = NC(Cc1ccccc1)C(=O)O; ξL = CC(C)CC(N)C(=O)O; ξA = CC(N)C(=O)O; Sar = CNCC(=O)O
# Target: T1, human ROR1 (Homo sapiens, UniProt Q01973)
# T1 construct: host or cells: HEK 293T cells, Tet-on system induced with doxycycline
# T1 sequence (Q01973 30-937): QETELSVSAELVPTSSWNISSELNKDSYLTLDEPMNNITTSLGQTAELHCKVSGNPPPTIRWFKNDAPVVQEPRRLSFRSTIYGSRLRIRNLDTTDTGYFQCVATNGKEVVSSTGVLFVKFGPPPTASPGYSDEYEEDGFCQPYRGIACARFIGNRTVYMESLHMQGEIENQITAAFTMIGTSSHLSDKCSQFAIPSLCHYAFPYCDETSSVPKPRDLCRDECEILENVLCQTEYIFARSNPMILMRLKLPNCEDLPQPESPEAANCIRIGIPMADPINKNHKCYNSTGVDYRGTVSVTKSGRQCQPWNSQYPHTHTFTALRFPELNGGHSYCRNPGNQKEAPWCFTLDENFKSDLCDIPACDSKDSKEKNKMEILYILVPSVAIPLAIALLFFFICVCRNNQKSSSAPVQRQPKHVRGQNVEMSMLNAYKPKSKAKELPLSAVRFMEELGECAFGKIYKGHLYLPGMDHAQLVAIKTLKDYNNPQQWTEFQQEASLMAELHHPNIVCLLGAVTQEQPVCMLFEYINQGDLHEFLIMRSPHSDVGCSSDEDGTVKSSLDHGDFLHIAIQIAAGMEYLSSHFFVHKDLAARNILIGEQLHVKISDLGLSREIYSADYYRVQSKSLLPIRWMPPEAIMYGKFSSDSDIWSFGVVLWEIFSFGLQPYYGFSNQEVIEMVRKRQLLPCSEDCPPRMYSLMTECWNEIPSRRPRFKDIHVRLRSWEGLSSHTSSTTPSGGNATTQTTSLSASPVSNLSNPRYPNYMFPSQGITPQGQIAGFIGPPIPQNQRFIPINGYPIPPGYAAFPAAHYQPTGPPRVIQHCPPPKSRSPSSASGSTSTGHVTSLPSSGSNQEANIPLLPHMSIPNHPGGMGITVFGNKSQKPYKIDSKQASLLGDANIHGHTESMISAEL
# Assay: ROR1 high content cell-based binding assay
# Conditions: read-out: ROR1 Binding 293T Human HC Cell Based Assay IC50
# In short: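 Doxycycline-induced 293T cells expressing human ROR1, seeded overnight, were treated with compound plus 5-FAM-labeled ROR1-binding probe peptide (30 nM final) for 1 h at 37 °C. After washing and formaldehyde/Hoechst fixation, cell-bound probe fluorescence was read by high-content imaging.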
row,Structure (SMILES),IC50
1,CC(C)C[C@@H]1NC(=O)[C@H](CC(C)C)NC(=O)[C@H](Cc2ccccc2)N(C)C(=O)CNC(=O)[C@H](Cc2ccc(O)cc2)NC(=O)[C@H](Cc2ccccc2)NC(=O)CSC[C@@H](C(N)=O)NC(=O)[C@H](Cc2c[nH]c3ccccc23)NC(=O)[C@H](Cc2ccc(O)cc2)NC1=O [Example 1106] ({CH2CO}-FYG[NMeF]LLYWC-NH2; thioether N-9),483 nM
2,CC(C)C[C@@H]1NC(=O)C(C)NC(=O)[C@H](Cc2ccccc2)N(C)C(=O)CNC(=O)[C@H](Cc2ccc(O)cc2)NC(=O)[C@H](Cc2ccccc2)NC(=O)CSC[C@@H](C(N)=O)NC(=O)[C@H](Cc2c[nH]c3ccccc23)NC(=O)[C@H](Cc2ccc(O)cc2)NC1=O (stereo partly shown) [Example 1107] ({CH2CO}-FYG[NMeF][ξA]LYWC-NH2; thioether N-9),553 nM
3,CC(C)C[C@@H]1NC(=O)[C@H](CC(N)=O)NC(=O)[C@H](Cc2ccccc2)N(C)C(=O)CNC(=O)[C@H](Cc2ccccc2)NC(=O)[C@H](Cc2ccccc2)NC(=O)CSC[C@@H](C(N)=O)NC(=O)[C@H](Cc2c[nH]c3ccccc23)NC(=O)[C@H](Cc2ccc(O)cc2)NC1=O [Example 1108] ({CH2CO}-FFG[NMeF]NLYWC-NH2; thioether N-9),404 nM
4,CSCC[C@@H]1NC(=O)[C@H](Cc2ccccc2)N(C)C(=O)CNC(=O)[C@H](Cc2ccc(O)cc2)NC(=O)[C@H](Cc2ccccc2)NC(=O)CSC[C@@H](C(N)=O)NC(=O)[C@H](Cc2c[nH]c3ccccc23)NC(=O)[C@H](Cc2ccc(O)cc2)NC(=O)[C@H](CC(C)C)NC1=O [Example 1109] ({CH2CO}-FYG[NMeF]MLYWC-NH2; thioether N-9),574 nM
5,CC(C)C[C@@H]1NC(=O)[C@H](CCC(N)=O)NC(=O)[C@H](Cc2ccccc2)N(C)C(=O)CNC(=O)[C@H](Cc2ccc(O)cc2)NC(=O)[C@H](Cc2ccccc2)NC(=O)CSC[C@@H](C(N)=O)NC(=O)[C@H](Cc2c[nH]c3ccccc23)NC(=O)[C@H](Cc2ccc(O)cc2)NC1=O [Example 1110] ({CH2CO}-FYG[NMeF]QLYWC-NH2; thioether N-9),361 nM
6,CC(C)C[C@@H]1NC(=O)[C@H](CO)NC(=O)[C@H](Cc2ccccc2)N(C)C(=O)CNC(=O)[C@H](Cc2ccc(O)cc2)NC(=O)[C@H](Cc2ccccc2)NC(=O)CSC[C@@H](C(N)=O)NC(=O)[C@H](Cc2c[nH]c3ccccc23)NC(=O)[C@H](Cc2ccc(O)cc2)NC1=O [Example 1111] ({CH2CO}-FYG[NMeF]SLYWC-NH2; thioether N-9),479 nM
7,CC(C)C[C@@H]1NC(=O)[C@H](Cc2ccc(O)cc2)NC(=O)[C@H](Cc2ccccc2)N(C)C(=O)CNC(=O)[C@H](Cc2ccc(O)cc2)NC(=O)C(Cc2ccccc2)NC(=O)CSC[C@@H](C(=O)NCC(N)=O)NC(=O)[C@H](Cc2c[nH]c3ccccc23)NC(=O)C(Cc2ccc(O)cc2)NC1=O (stereo partly shown) [Example 1112] ({CH2CO}-[ξF]YG[NMeF]YL[ξY]WCG-NH2; thioether N-9),147 nM
8,CC(C)CC1NC(=O)[C@H](Cc2ccc(O)cc2)NC(=O)[C@H](Cc2ccccc2)NC(=O)CSC[C@@H](C(=O)NCC(N)=O)NC(=O)[C@H](Cc2ccccc2)N(C)C(=O)[C@H](Cc2ccc(O)cc2)NC(=O)[C@H](Cc2c[nH]c3ccccc23)NC(=O)C(Cc2ccc(O)cc2)NC(=O)[C@H](C(C)C)NC1=O (stereo partly shown) [Example 1113] ({CH2CO}-FY[ξL]V[ξY]WY[NMeF]CG-NH2; thioether N-9),100 nM
9,CC(C)C[C@@H]1NC(=O)[C@H](C(C)O)NC(=O)[C@H](Cc2ccccc2)N(C)C(=O)CNC(=O)[C@H](Cc2ccc(O)cc2)NC(=O)[C@H](Cc2ccccc2)NC(=O)CSC[C@@H](C(N)=O)NC(=O)[C@H](Cc2c[nH]c3ccccc23)NC(=O)[C@H](Cc2ccc(O)cc2)NC1=O (stereo partly shown) [Example 1114] ({CH2CO}-FYG[NMeF][Thr(3ξ)]LYWC-NH2; thioether N-9),470 nM
10,CC(C)C[C@@H]1NC(=O)[C@H](Cc2ccc(O)cc2)NC(=O)[C@H](Cc2ccccc2)N(C)C(=O)CNC(=O)[C@H](Cc2ccc(O)cc2)NC(=O)[C@H](Cc2ccccc2)NC(=O)CSC[C@@H](C(N)=O)NC(=O)[C@H](Cc2c[nH]c3ccccc23)NC(=O)[C@H](Cc2ccc(O)cc2)NC1=O [Example 1115] ({CH2CO}-FYG[NMeF]YLYWC-NH2; thioether N-9),94 nM
11,CC(C)C[C@@H]1NC(=O)[C@@H](C)NC(=O)[C@H](Cc2ccccc2)N(C)C(=O)CNC(=O)[C@H](Cc2ccc(O)cc2)NC(=O)[C@H](Cc2ccccc2)NC(=O)CSC[C@@H](C(N)=O)NC(=O)[C@H](Cc2c[nH]c3ccccc23)NC(=O)[C@H](Cc2ccc(O)cc2)NC1=O [Example 1116] ({CH2CO}-FYG[NMeF][dA]LYWC-NH2; thioether N-9),183 nM

# Now from value to compound:
row,IC50,Structure (SMILES)
1,69 nM,CC(C)C[C@@H]1NC(=O)[C@H](Cc2c[nH]cn2)NC(=O)[C@H](Cc2ccccc2)N(C)C(=O)CNC(=O)[C@H](Cc2ccc(O)cc2)NC(=O)[C@@H](Cc2ccccc2)NC(=O)CSC[C@@H](C(N)=O)NC(=O)[C@H](Cc2c[nH]c3ccccc23)NC(=O)[C@H](Cc2ccc(O)cc2)NC1=O [Example 1117] ({CH2CO}-[dF]YG[NMeF]HLYWC-NH2; thioether N-9)
2,151 nM,CC(C)C[C@@H]1NC(=O)[C@H](CC(N)=O)NC(=O)[C@H](Cc2ccccc2)N(C)C(=O)CNC(=O)[C@H](Cc2ccc(O)cc2)NC(=O)[C@H](Cc2ccccc2)NC(=O)CSC[C@@H](C(=O)NCC(N)=O)NC(=O)[C@H](Cc2c[nH]c3ccccc23)NC(=O)[C@H](Cc2ccc(O)cc2)NC1=O [Example 1118] ({CH2CO}-FYG[NMeF]NLYWCG-NH2; thioether N-9)
3,790 nM,CC(C)C[C@@H]1NC(=O)[C@H](CC(N)=O)NC(=O)[C@H](Cc2ccccc2)N(C)C(=O)CNC(=O)[C@H](Cc2ccc(O)cc2)NC(=O)[C@H](Cc2ccc(O)cc2)NC(=O)CSC[C@@H](C(N)=O)NC(=O)[C@H](Cc2c[nH]c3ccccc23)NC(=O)[C@H](Cc2ccc(O)cc2)NC1=O [Example 1120] ({CH2CO}-YYG[NMeF]NLYWC-NH2; thioether N-9)
4,378 nM,CC(C)C[C@@H]1NC(=O)CNC(=O)[C@H](Cc2ccccc2)N(C)C(=O)CNC(=O)[C@H](Cc2ccc(O)cc2)NC(=O)[C@H](Cc2ccccc2)NC(=O)CSC[C@@H](C(N)=O)NC(=O)[C@H](Cc2c[nH]c3ccccc23)NC(=O)[C@H](Cc2ccc(O)cc2)NC1=O [Example 1121] ({CH2CO}-FYG[NMeF]GLYWC-NH2; thioether N-9)
5,567 nM,CC(C)C[C@@H]1NC(=O)[C@@H](CCC(N)=O)NC(=O)[C@H](Cc2ccccc2)N(C)C(=O)CNC(=O)[C@H](Cc2ccc(O)cc2)NC(=O)[C@H](Cc2ccccc2)NC(=O)CSC[C@@H](C(N)=O)NC(=O)[C@H](Cc2c[nH]c3ccccc23)NC(=O)[C@H](Cc2ccc(O)cc2)NC1=O [Example 1122] ({CH2CO}-FYG[NMeF][dQ]LYWC-NH2; thioether N-9)
6,126 nM,CC(C)C[C@@H]1NC(=O)[C@H](CC(N)=O)NC(=O)[C@H](Cc2ccc(O)cc2)N(C)C(=O)CNC(=O)[C@H](Cc2ccc(O)cc2)NC(=O)[C@H](Cc2ccccc2)NC(=O)CSC[C@@H](C(N)=O)NC(=O)[C@H](Cc2c[nH]c3ccccc23)NC(=O)[C@H](Cc2ccc(O)cc2)NC1=O [Example 1123] ({CH2CO}-FYG[NMeY]NLYWC-NH2; thioether N-9)
7,39 nM,CC(C)C[C@@H]1NC(=O)[C@H](Cc2ccccc2)NC(=O)CSC[C@@H](C(=O)NCC(N)=O)NC(=O)[C@H](C(C)C)NC(=O)[C@H](Cc2ccccc2)N(C)C(=O)[C@H](CC(C)C)NC(=O)[C@H](Cc2c[nH]c3ccccc23)NC(=O)CN(C)C(=O)CNC(=O)[C@H](C(C)C)NC(=O)[C@H](Cc2c[nH]c3ccccc23)NC1=O [Example 1201]
8,67 nM,CC(C)C[C@@H]1NC(=O)[C@H](Cc2ccccc2)NC(=O)CSC[C@@H](C(N)=O)NC(=O)[C@H](C(C)C)NC(=O)[C@H](Cc2ccccc2)N(C)C(=O)[C@H](CC(C)C)NC(=O)[C@H](Cc2c[nH]c3ccccc23)NC(=O)CN(C)C(=O)CNC(=O)[C@H](C(C)C)NC(=O)[C@H](Cc2c[nH]c3ccccc23)NC1=O [Example 1202] ({CH2CO}-FLWVG[Sar]WL[NMeF]VC-NH2; thioether N-11)
9,86 nM,CC(C)C[C@@H]1NC(=O)[C@H](Cc2ccccc2)NC(=O)CSC[C@@H](C(N)=O)NC(=O)[C@H](C(C)C)NC(=O)[C@H](Cc2ccccc2)N(C)C(=O)[C@H](CC(C)C)NC(=O)[C@H](Cc2c[nH]c3ccccc23)NC(=O)CN(C)C(=O)CNC(=O)[C@H](C(C)C)NC(=O)[C@H](Cc2c[nH]c3ccccc23)NC1=O [Example 1203] ({CH2CO}-FLWVG[Sar]WL[NMeF]VC-NH2; thioether N-11)
10,228 nM,CC(C)C[C@@H]1NC(=O)[C@H](Cc2ccccc2)NC(=O)CSC[C@@H](C(N)=O)NC(=O)[C@H](C(C)C)NC(=O)[C@H](Cc2ccccc2)N(C)C(=O)[C@H](CC(C)C)NC(=O)[C@H](Cc2c[nH]c3ccccc23)NC(=O)CN(C)C(=O)CNC(=O)[C@H](C(C)C)NC(=O)[C@H](Cc2ccc(-c3ccccc3)cc2)NC1=O [Example 1204] ({CH2CO}-FL[Bip]VG[Sar]WL[NMeF]VC-NH2; thioether N-11)
11,346 nM,CC(C)C[C@@H]1NC(=O)[C@H](Cc2ccccc2)NC(=O)CSC[C@@H](C(=O)NCC(N)=O)NC(=O)[C@H](C(C)C)NC(=O)[C@H](Cc2c[nH]c3ccccc23)NC(=O)[C@H](CC(C)C)NC(=O)[C@H](Cc2c[nH]c3ccccc23)NC(=O)CN(C)C(=O)CNC(=O)[C@H](C(C)C)NC(=O)[C@H](Cc2c[nH]c3ccccc23)NC1=O [Example 1205] ({CH2CO}-FLWVG[Sar]WLWVCG-NH2; thioether N-11)
